# Measurements taken from US20240343681A1, “MOLECULES HAVING PESTICIDAL UTILITY AND INTERMEDIATES AND PROCESSES RELATED THERETO” (priority 2021, published 2024).
# Legend:
# [1] = tested on: Yellow Fever Mosquito (Aedes aegypti, AEDSAE) larvae; test: Bioassay on yellow fever mosquito (YFM), 96-well plate larval assay; format: in vivo; conditions: 4000 ppm (master plate solution), about 1 day-old larvae, 3 days
# [2] = tested on: Beet Armyworm (Spodoptera exigua, LAPHEG) second instar larva; test: Bioassay on beet armyworm (BAW), 128-well diet tray assay; format: in vivo; conditions: 50 μg/cm^2 on artificial diet, 25° C., five days
# Summary of the method: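 Test molecule in 90:10 acetone–water applied at 50 μg/cm^2 onto 1 mL artificial diet and dried; one second-instar larva per well, eight wells. Held 5 days at 25 °C, 14:10 light–dark; percent mortality averaged over the eight wells.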
# target pests = test: Screening of separated stereoisomer peaks against target pests; format: in vivo; conditions: SFC-separated R,R and S,S isomers (F107 and F108)
# Description: trans-rac-N-(3-Amino-4-chlorophenyl)-2,2-dichloro-3-(4-fluoro-3-(trifluoromethyl)phenyl)cyclopropane-1-carboxamide (C20, 1.0 g, 2.27 mmol) was added to a solution of 2,6-difluoronicotinic acid (0.36 g, 2.27 mmol) in toluene (25 mL). Pyridine (0.72 mL, 9.05 mmol) was added dropwise, and 2,4,6-tripropyl-1,3,5,2,4,6-trioxatriphosphinane 2,4,6-trioxide as a 50% solution in ethyl acetate (5.8 mL, 9.05 mmol) was added at room temperature. The reaction mixture was warmed to 110° C. and stirred for 16 hours, cooled to room temperature, and concentrated under reduced pressure. The residue was diluted with water (80 mL) and was extracted with ethyl acetate (2×80 mL). The combined organic phases were washed with saturated aqueous sodium chloride, dried over anhydrous sodium sulfate, and filtered, and the filtrate was concentrated under reduced pressure.
SMILES,melting point [°C],activity against YFM (scored based on mortality) [1],"activity against BAW (percent mortality, averaged over eight wells) [2]","efficacy against target pests, Peak-2 versus Peak-1 (target pests)"
O=C(Nc1cc(NC(=O)C2C(c3cc(Cl)cc(Cl)c3)C2(Cl)Cl)ccc1Cl)c1cccc(=O)[nH]1 (racemic),312 to 316,,,
O=C(Nc1cc(NC(=O)C2C(c3cc(Cl)cc(Cl)c3)C2(Cl)Cl)ccc1Cl)c1cc(C(F)(F)F)cc(C(F)(F)F)c1 (racemic),109 to 113,,,
"COCC(=O)Nc1ccc(C(=O)Nc2cc(NC(=O)[C@H]3[C@H](c4ccc(F)c(C(F)(F)F)c4)C3(Cl)Cl)ccc2Cl)c(F)c1 (racemic) [F118, trans-rac-N-(2-Chloro-5-(2,2-dichloro-3-(4-fluoro-3-(trifluoromethyl)phenyl)cyclopropane-1-carboxamido)phenyl)-2-fluoro-4-(2-methoxyacetamido)benzamide]",,exhibited activity,exhibited activity,
"O=C(Nc1cc(NC(=O)[C@H]2[C@H](c3ccc(F)c(C(F)(F)F)c3)C2(Cl)Cl)ccc1Cl)c1ccc(F)nc1F (single isomer, unassigned) [F107]",,,,significantly greater than Peak-1
"O=C(Nc1c(F)ccc(NC(=O)[C@H]2[C@H](c3cc(Cl)c(Cl)c(Cl)c3)C2(Cl)Cl)c1F)c1ccc(F)cc1F [F10, N-(3-((1R,3R)-2,2-dichloro-3-(3,4,5-trichlorophenyl)cyclopropane-1-carboxamido)-2,6-difluorophenyl)-2,4-difluorobenzamide]",,exhibited activity,exhibited activity,
"O=C(Nc1c(F)ccc(NC(=O)[C@H]2[C@H](c3cc(Cl)c(Cl)c(Cl)c3)C2(Cl)Cl)c1F)C1CCCO1 (stereo partly drawn) [F11, N-(3-((1R,3R)-2,2-Dichloro-3-(3,4,5-trichlorophenyl)cyclopropane-1-carboxamido)-2,6-difluorophenyl)tetrahydrofuran-2-carboxamide]",,exhibited activity,exhibited activity,
"CCCC(=O)Nc1c(F)ccc(NC(=O)[C@H]2[C@H](c3cc(Cl)c(Cl)c(Cl)c3)C2(Cl)Cl)c1F [F14, (1R,3R)—N-(3-Butyramido-2,4-difluorophenyl)-2,2-dichloro-3-(3,4,5-trichlorophenyl)cyclopropane-1-carboxamide]",,exhibited activity,exhibited activity,
"CC(CC(=O)Nc1cccc(NC(=O)[C@H]2[C@H](c3cc(Cl)cc(Cl)c3)C2(Cl)Cl)c1F)C(F)(F)F (stereo partly drawn) [F15, (1R,3R)-2,2-Dichloro-3-(3,5-dichlorophenyl)-N-(2-fluoro-3-(4,4,4-trifluoro-3-methylbutanamido)phenyl)cyclopropane-1-carboxamide]",,exhibited activity,exhibited activity,
"O=C(Nc1cccc(NC(=O)[C@H]2[C@H](c3cc(Cl)cc(Cl)c3)C2(Cl)Cl)c1F)c1ccc(F)cc1F [F16, N-(3-((1R,3R)-2,2-Dichloro-3-(3,5-dichlorophenyl)cyclopropane-1-carboxamido)-2-fluorophenyl)-2,4-difluorobenzamide]",,exhibited activity,exhibited activity,
"CCOC(C)C(=O)Nc1cccc(NC(=O)[C@H]2[C@H](c3cc(Cl)cc(Cl)c3)C2(Cl)Cl)c1F (stereo partly drawn) [F18, (1R,3R)-2,2-Dichloro-3-(3,5-dichlorophenyl)-N-(3-(2-ethoxypropanamido)-2-fluorophenyl)cyclopropane-1-carboxamide]",,exhibited activity,exhibited activity,
"O=C(Nc1cccc(NC(=O)C(F)(F)C(F)(F)C(F)(F)F)c1F)[C@H]1[C@H](c2cc(Cl)cc(Cl)c2)C1(Cl)Cl [F19, (1R,3R)-2,2-Dichloro-3-(3,5-dichlorophenyl)-N-(2-fluoro-3-(2,2,3,3,4,4,4-heptafluorobutanamido)phenyl)cyclopropane-1-carboxamide]",,exhibited activity,exhibited activity,
"CCCC(=O)Nc1cccc(NC(=O)[C@H]2[C@H](c3cc(Cl)cc(Cl)c3)C2(Cl)Cl)c1F [F20, (1R,3R)—N-(3-Butyramido-2-fluorophenyl)-2,2-dichloro-3-(3,5-dichlorophenyl)cyclopropane-1-carboxamide]",,exhibited activity,exhibited activity,
"CC(C#N)C(=O)Nc1cccc(NC(=O)[C@H]2[C@H](c3cc(Cl)cc(Cl)c3)C2(Cl)Cl)c1F (stereo partly drawn) [F22, (1R,3R)-2,2-Dichloro-N-(3-(2-cyanopropanamido)-2-fluorophenyl)-3-(3,5-dichlorophenyl)cyclopropane-1-carboxamide]",,exhibited activity,exhibited activity,
"O=C(Nc1cc(NC(=O)[C@H]2[C@H](c3ccc(F)c(C(F)(F)F)c3)C2(Cl)Cl)ccc1Cl)c1cc(F)cc(F)c1 [F100, N-(2-Chloro-5-((1R,3R)-2,2-dichloro-3-(4-fluoro-3-(trifluoromethyl)phenyl)cyclopropane-1-carboxamido)phenyl)-3,5-difluorobenzamide]",,exhibited activity,exhibited activity,
"O=C(Nc1cc(NC(=O)[C@H]2[C@H](c3cc(Cl)cc(Cl)c3)C2(Cl)Cl)ccc1Cl)c1ncc(F)cc1F [F106, N-(2-Chloro-5-((1R,3R)-2,2-dichloro-3-(3,5-dichlorophenyl)cyclopropane-1-carboxamido)phenyl)-3,5-difluoropicolinamide]",,exhibited activity,exhibited activity,
"O=C(Nc1cc(NC(=O)[C@H]2[C@H](c3ccc(F)c(C(F)(F)F)c3)C2(Cl)Cl)ccc1Cl)c1cnc(F)c(F)c1 [F109, N-(2-Chloro-5-((1R,3R)-2,2-dichloro-3-(4-fluoro-3-(trifluoromethyl)phenyl)cyclopropane-1-carboxamido)phenyl)-5,6-difluoronicotinamide]",,exhibited activity,exhibited activity,
